# Values quoted from earlier work in patent US12691080B2, “Fenretinide formulations, systems incorporating same, and methods for their use” (ARx, LLC, priority 2024, dated 2026).
# How the values were obtained:
# [1] = pH 6.5
smiles,measurement,setting,value
"CC1=C(/C=C/C(C)=C/C=C/C(C)=C/C(=O)Nc2ccc(O)cc2)C(C)(C)CCC1 [fenretinide, N-(4-hydroxyphenyl)retinamide]",epithelial proliferation (Ki-67 indices),oral epithelium; epithelium with higher fenretinide levels (>5 μM),significantly reduced
same,transglutaminase 1 levels,oral epithelium; fenretinide levels lower than 5 μM,increased levels
same,Phase II enzyme UGT1A1,oral epithelium; lower fenretinide levels,increase
same,systemically detectable drug,oral epithelium; oral mucosal patch delivery,absence of any systemically detectable drug
same,solubility in water,[1],0.013 µM
